Assay results from PMC6345774, “Kinetic and thermodynamic effects of phosphorylation on p53 binding to MDM2” (Scientific Reports, 2019).

How the values were obtained:
[1] = Far-UV CD of isolated peptides in aqueous solution (helicity); format: physicochemical; conditions: 5 °C, 50 mM phosphate pH 6.8; for molar ellipticity at 222 nm, [Θ]222: far-UV CD; for % Helix in water ([Θ]222): from molar ellipticity at 222 nm assuming 100% helix = −31500 deg cm^2 dmol^−1
Method: Spectra were acquired on a Jasco J815 spectropolarimeter (Jasco, Japan) interfaced with a Peltier unit. The instrument was periodically calibrated with (+) 10-camphorsulphonic acid. Far-UV measurements (in aqueous or TFE solutions) were performed in 0.1-cm-pathlength quartz cells (Hellma), with a response time of 2 s, a band width of 1 nm, data were collected every 0.2 nm, and a scan velocity of 50 nm/min (or 20 nm/min). […] In all peptides, two concentrations (10 μM and 70 μM) in aqueous solutions (50 mM sodium phosphate buffer, pH 6.8 […]) were used to determine whether either the shapes or the intensities of the spectra were concentration-dependent. […] In all cases (aqueous solution or TFE titrations), the corresponding blank solutions (containing only buffer, or buffer and the corresponding amount of TFE) were subtracted from the spectra.
(§1) For the TFE titrations, a peptide concentration of 40 μM was used. The samples were prepared the day before and left overnight at 5 °C to reach equilibrium. The experiments in aqueous solution were acquired at 5 °C, in 50 mM sodium phosphate buffer, pH 6.8. Raw ellipticity was converted to molar ellipiticity, [Θ], from which the percentage of helical populations was determined. Co-solvent concentrations were indicated in percentage of volume. […] Fitting of the titration curves, obtained by observation of the molar ellipticity at 222 nm as the TFE concentration was increased, was carried out with Kaleidagraph (Synergy software).

[2] = molecular target: T1, human MDM2 (residues 2–125) (Homo sapiens, UniProt Q00987); assay: Isothermal titration calorimetry of p53-peptide binding to MDM2; conditions: ITC, 15 °C, 50 mM Tris-HCl pH 8.0, 250 mM NaCl, 0.5 mM TCEP; for ΔH of binding / Kd: peptide titrated into MDM2; for ΔH of binding: repeated twice; for Kd: read-out: Log KA (converted)
T1 construct: human MDM2 (residues 2–125); made in house; host or cells: E. coli BL21 (DE3)
Method: Protein concentration was determined from the absorbance of its seven Tyr residues.
Peptide binding to MDM2 was measured by using an Auto-iTC200 (Malvern Instruments, Malvern UK), as described[24],[37]. Data acquisition was carried out with a reference power of 10 µcal/s, initial delay of 60 s, spacing between injections of 150 s. In a typical ITC experiment, the p53 peptide was loaded into a 40 μl syringe and the protein was placed into the sample cell. The sequence of injections consisted of one 0.5 μl injection followed by 19 injections of 2 μl each. Control experiments loading peptide into buffer solution were also carried out for each peptide. Experiments were performed with freshly prepared protein solutions, at 15 °C in the same buffer used in fluorescence experiments. ITC experiments were performed at 15 °C rather than 25 °C to avoid aggregation of MDM2.
Each peak was integrated using NITPIC software. The areas of the peaks are related to the heat exchanged upon binding and/or dilution. This heat was corrected of the heat of dilution (i.e., the average heat of the injections after the equilibrium has reached the saturation). Titration with each peptide was repeated twice.

[3] = TFE titrations monitored by CD (helical population); format: physicochemical; conditions: 5 °C, 50 mM phosphate pH 6.8, peptide 40 μM; for [TFE]1/2 (midpoint of TFE titration) / m (m-value of TFE titration): CD at 222 nm, two-state fit, ± fitting error; for % Helix in water (from ΔG in TFE titrations): from ΔG = [TFE]1/2 × m, for 1% values the error was 10%
Method: Unlike the above programs, which make assumptions about how the ellipticity signal relates to secondary structure content, a TFE titration allows the determination of helical content derived from the free-energy change for the equilibrium between folded (in TFE) and unfolded peptide, without any such assumptions.
as §1

[4] = molecular target: T1, human MDM2 (residues 2–125); assay: Stopped-flow fluorescence kinetics of p53-peptide binding to MDM2; conditions: 15 °C; for Kd: ratio of kinetic rate constants, assuming two-state binding without intermediates, read-out: Kd (koff/kon); for kon / koff: stopped-flow Trp fluorescence, 50 mM Tris-HCl pH 8.0, 250 mM NaCl, 0.5 mM TCEP, peptide 0.125 μM, ± fitting error; for kon: MDM2 1–3 μM, pseudo-first order, slope, read-out: kon 10^6; for koff: y-axis intercept of pseudo-first-order plot
Method: Expression and purification of human MDM2 (residues 2–125) was carried out as described[23] in BL21 (DE3) cells. […] Protein concentration was determined from the absorbance of its seven Tyr residues.
The kinetics of the MDM2/p53-peptide interaction was measured at 15 °C using an Applied Photophysics stopped-flow fluorimeter in the same buffer as that used in the equilibrium fluorescence experiments. The experimental procedure has been described previously. Association kinetics was measured under pseudo-first order conditions, by keeping the MDM2 concentration in excess of that of the peptide. […] Excitation wavelength was 280 nm with a cut-off filter of 315 nm on the emission side. The slit widths were 10 nm for excitation and emission.
At each MDM2 concentration a minimum of six traces were acquired; and the fitting in all cases for all peptides was carried out with the averaging of at least four traces. The averaged trace was always fitted to a single exponential function, which yielded, kobs. Fitting to a single exponential curve was carried out by using Kaleidagraph (Synergy Software); reported errors in kobs are from the exponential fitting. The dissociation (koff) and association (kon) rate constants were obtained from the straight line: kobs=kon×[MDM2]+koff.
Errors in both rates were from the linear fitting; the errors were always larger for koff due to the extrapolation to the y-axis intercept.

[5] = molecular target: T2, human MDM2 (residues 2–125) (human, UniProt Q00987 2-125); assay: ITC; p53 peptide in the syringe titrated into MDM2 in the cell; Auto-iTC200; 15 °C; 50 mM Tris-HCl pH 8.0, 250 mM NaCl, 0.5 mM TCEP; conditions: both partners purified
T2 construct: MDM2 (murine double minute 2), human, N-terminal domain, residues 2-125; no tag is named; also called N-terminal domain of MDM2
T2 sequence (Q00987 2-125): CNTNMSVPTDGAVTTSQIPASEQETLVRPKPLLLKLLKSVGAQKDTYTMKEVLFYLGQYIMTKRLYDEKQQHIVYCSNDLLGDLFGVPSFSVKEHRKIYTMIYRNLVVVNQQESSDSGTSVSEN

T1 sequence (Q00987 2-125): as above

Row | Molecule | molar ellipticity at 222 nm, [Θ]222 [1] | % Helix in water ([Θ]222) [1] | TΔS of binding [2] | ΔH of binding [2] | [TFE]1/2 (midpoint of TFE titration) [3] | m (m-value of TFE titration) [3] | % Helix in water (from ΔG in TFE titrations) [3] | dH [5] | also measured
1 | CC(=O)N[C@@H](CCC(=O)O)C(=O)N[C@@H](CC(=O)O)C(=O)N[C@@H](Cc1ccccc1)C(=O)N[C@@H](CC(=O)O)C(=O)N[C@@H](CC(=O)O)C(=O)N[C@@H](CC(C)C)C(=O)N[C@@H](Cc1c[nH]c2ccccc12)C(=O)N[C@@H](CCCCN)C(=O)N[C@@H](CC(C)C)C(=O)N[C@@H](CC(C)C)C(=O)N1CCC[C@H]1C(=O)N[C@@H](CCC(=O)O)C(=O)N[C@@H](CC(N)=O)C(N)=O [P53-D18-D20] | −2811 deg cm^2 dmol^−1 | 9% | -3.96 kcal/mol | -9.95 kcal/mol | 9.8 ± 0.8 % (vol:vol) | 263 ± 47 cal mol^−1(%)^−1 | 1% |  | 
2 | CC(=O)N[C@@H](CCC(=O)O)C(=O)N[C@@H](CC(=O)O)C(=O)N[C@@H](Cc1ccccc1)C(=O)N[C@@H](CCC(=O)O)C(=O)N[C@@H](CC(=O)O)C(=O)N[C@@H](CC(C)C)C(=O)N[C@@H](Cc1c[nH]c2ccccc12)C(=O)N[C@@H](CCCCN)C(=O)N[C@@H](CC(C)C)C(=O)N[C@@H](CC(C)C)C(=O)N1CCC[C@H]1C(=O)N[C@@H](CCC(=O)O)C(=O)N[C@@H](CC(N)=O)C(N)=O [P53-D18-E20] | −3597 deg cm^2 dmol^−1 | 11.4% | -3.03 kcal/mol | -9.90 kcal/mol | 33 ± 5 % (vol:vol) | 112 ± 70 cal mol^−1(%)^−1 | 1% |  | Kd [2]: 5.89 µM
3 | CC(=O)N[C@@H](CCC(=O)O)C(=O)N[C@@H](CC(=O)O)C(=O)N[C@@H](Cc1ccccc1)C(=O)N[C@@H](CO)C(=O)N[C@@H](CC(=O)O)C(=O)N[C@@H](CC(C)C)C(=O)N[C@@H](Cc1c[nH]c2ccccc12)C(=O)N[C@@H](CCCCN)C(=O)N[C@@H](CC(C)C)C(=O)N[C@@H](CC(C)C)C(=O)N1CCC[C@H]1C(=O)N[C@@H](CCC(=O)O)C(=O)N[C@@H](CC(N)=O)C(N)=O [P53-D18] | −3313 deg cm^2 dmol^−1 | 10.5% | -12.19 kcal/mol | -18.39 kcal/mol | 12.0 ± 0.7 % (vol:vol) | 383 ± 142 cal mol^−1(%)^−1 | 1% |  | Kd [4]: 5 ± 3 µM; kon [4]: 5e+06 ± 3e+06 M⁻¹ s⁻¹; koff [4]: 23 ± 9 s⁻¹; Kd [2]: 19.1 µM
4 | CC(=O)N[C@@H](CCC(=O)O)C(=O)N[C@H](C(=O)N[C@@H](Cc1ccccc1)C(=O)N[C@@H](CC(=O)O)C(=O)N[C@@H](CC(=O)O)C(=O)N[C@@H](CC(C)C)C(=O)N[C@@H](Cc1c[nH]c2ccccc12)C(=O)N[C@@H](CCCCN)C(=O)N[C@@H](CC(C)C)C(=O)N[C@@H](CC(C)C)C(=O)N1CCC[C@H]1C(=O)N[C@@H](CCC(=O)O)C(=O)N[C@@H](CC(N)=O)C(N)=O)[C@@H](C)O [P53-D20] | −2811 deg cm^2 dmol^−1 | 9% |  |  |  |  |  |  | Kd [4]: 0.7 ± 0.2 µM; kon [4]: 9.5e+06 ± 900000 M⁻¹ s⁻¹; koff [4]: 7 ± 2 s⁻¹
5 | CC(=O)N[C@@H](CCC(=O)O)C(=O)N[C@H](C(=O)N[C@@H](Cc1ccccc1)C(=O)N[C@@H](COP(=O)(O)O)C(=O)N[C@@H](CC(=O)O)C(=O)N[C@@H](CC(C)C)C(=O)N[C@@H](Cc1c[nH]c2ccccc12)C(=O)N[C@@H](CCCCN)C(=O)N[C@@H](CC(C)C)C(=O)N[C@@H](CC(C)C)C(=O)N1CCC[C@H]1C(=O)N[C@@H](CCC(=O)O)C(=O)N[C@@H](CC(N)=O)C(N)=O)[C@@H](C)O [P53-pS] | −4614 deg cm^2 dmol^−1 | 14.6% |  |  |  |  |  |  | 
6 | CC(=O)N[C@@H](CCC(=O)O)C(=O)N[C@H](C(=O)N[C@@H](Cc1ccccc1)C(=O)N[C@@H](COP(=O)(O)O)C(=O)N[C@@H](CC(=O)O)C(=O)N[C@@H](CC(C)C)C(=O)N[C@@H](Cc1c[nH]c2ccccc12)C(=O)N[C@@H](CCCCN)C(=O)N[C@@H](CC(C)C)C(=O)N[C@@H](CC(C)C)C(=O)N1CCC[C@H]1C(=O)N[C@@H](CCC(=O)O)C(=O)N[C@@H](CC(N)=O)C(N)=O)[C@@H](C)OP(=O)(O)O [P53-pTpS] | −2547 deg cm^2 dmol^−1 | 8.1% |  |  |  |  |  |  | 
7 | Ac-EeFdDLWeeLPEN-NH2 [P53-E18-D20-E24-E25, p53 Glu17-Asn29 peptide with phosphomimetics at Thr18 and Ser20 and Lys24, Leu25 mutated to Glu] | 142.7 deg cm^2 dmol^−1 | 0% |  |  |  |  |  |  | binding to MDM2 in stopped-flow kinetics ([4]; no exponential behaviour in any trace at any MDM2 concentration tested): did not show any evidence of binding
8 | Ac-EDFSDLWKLLPEN-NH2 [Ac-EdFSDLWKLLPEN-NH2 (P53-D18)] |  |  |  |  |  |  |  | -18.4 kcal/mol | Kd [5]: 19 µM; Log KA [5]: 4.72
9 | Ac-EDFEDLWKLLPEN-NH2 [Ac-EdFeDLWKLLPEN-NH2 (P53-D18-E20)] |  |  |  |  |  |  |  | -9.9 kcal/mol | 
10 | Ac-EDFDDLWKLLPEN-NH2 [Ac-EdFdDLWKLLPEN-NH2 (P53-D18-D20)] |  |  |  |  |  |  |  | -9.95 kcal/mol | 
